Test results taken from patent publication US20240058453A1 (priority 2022, published 2024).

Test system: bacteria
Assay type: cell-based

SMILES: NC[C@H]1O[C@H](O[C@H]2[C@H](O)[C@@H](O[C@H]3O[C@H](CO)[C@@H](O)[C@H](N)[C@H]3O)[C@H](N)C[C@@H]2N)[C@H](N)C[C@@H]1O [tobramycin]
- bacteria killing activity: comparable activity
